{"source": "patent US20160128988A1", "about": "“COMBINATIONS FOR THE TREATMENT OF CANCER COMPRISING A MPS-1 KINASE INHIBITOR AND A MITOTIC INHIBITOR” (BAYER PHARMA AKTIENGESELLSCHAFT, priority 2013, published 2016)", "key": {"[1]": {"system": "A2780 human ovarian carcinoma model", "type": "in vivo", "conditions": "Compound A1 single agent 1 mg/kg and 2.5 mg/kg (8 days); triple combination (17 treatment days)", "experimental": "Cisplatin and paclitaxel were administered in combination at their respective MTD, cisplatin intraperitoneally (IP) every second week (Q2W) and paclitaxel IV QW."}, "[2]": {"system": "MKN1 human gastric carcinoma model", "assay": "Combination with paclitaxel in MKN1 human gastric carcinoma model", "conditions": "Compound A1 single agent 1 mg/kg or 2.5 mg/kg (40 days); paclitaxel and combination (78 treatment days)", "protocol": "Compound A1 was administered PO in the 2QD intermittent (2 days on/5 days off) dosing schedule up to the respective MTD in single-agent treatment and at a dose of 40% of the single-agent MTD in combination. Paclitaxel was administered IV QW at its respective MTD. Treatment for all groups started at a tumor size of 27 mm^2, on day 7 after tumor cell inoculation. For combination treatment, Compound A1 and paclitaxel were administered on the same day within a time of 4 hours. Animals of the control and Compound A1 single-agent treatment groups were treated for 40 days. Animals of the paclitaxel single-agent and Compound A1 with paclitaxel combination treatment groups were treated for 78 days."}, "A2780cis xenograft model": {"system": "A2780cis xenograft model", "experimental": "The effect of the combination treatment of Compound A1 with paclitaxel was studied in a human ovarian carcinoma model in nude mice, namely in the adaptive cisplatin-resistant and paclitaxel intrinsically-resistant A2780cis xenograft model. […] Paclitaxel was administered IV QW at its respective MTD."}, "[3]": {"system": "IGR-OV1 human ovarian carcinoma model", "experimental": "Paclitaxel was administered IV QW at 50% of its respective MTD."}, "[4]": {"system": "NCI-H1299 human NSCLC xenograft tumors", "experimental": "The effect of combination treatment of an Mps-1 inhibitor and paclitaxel was studied in the NCI-H1299 taxane intrinsically resistant human lung carcinoma (NSCLC) xenograft model in nude mice.\nPaclitaxel was applied intravenously once per week upon its respective MTD. Substances were formulated in optimal vehicles to achieve solutions. Animal body weight and tumor size were determined two to three times weekly. […] For combination treatment, the Compound A1 and paclitaxel were applied at the same day within a time frame of 4 hours. Animals of control and monotherapy group (Compound A1 only) were treated for a duration of 28 days. Animals of paclitaxel monotherapy and paclitaxel/Mps-1 inhibitor treatment groups were treated for a duration of 37 days. At the end of the study after one final treatment plasma and tumors were sampled for PK analysis and final tumor weight was determined.\n(§1) FIGS. 1A and 1B show the response of NCI-H1299 human NSCLC xenograft tumors to treatment with Compound A1 in combination with paclitaxel. NCI-H1299 human NSCLC tumor cells were implanted s.c. into nude mice on day 0. […] Compound A1 was administered orally (p.o.) upon 0.45 mg/kg twice daily (2QD) for 2 days on/5 days off (2 on/5 off) in monotherapy and in combination with paclitaxel. Paclitaxel was administered intravenously (i.v.) upon 20 mg/kg once daily (QD) once per week (1 on/6 off) in monotherapy and combination therapy. Tumor growth was monitored by determination of the tumor area using calliper measurement two to three times weekly. FIG. 1A: Time course of tumor growth. FIG. 1B: Time course of animal body weight change during the course of the study."}, "[5]": {"assay": "Maximum tolerated dose (MTD)", "type": "in vivo, nude mice", "conditions": "nude, mouse, in vivo; Compound A1 PO 2QD 2 days on/5 days off; paclitaxel IV QW; docetaxel i.v. 1 day on/6 days off; read-out: MTD (maximum tolerated dose), single-agent"}, "[6]": {"system": "NCI-H1299 human NSCLC xenograft tumors", "excerpt": "The effect of combination treatment of an Mps-1 kinase inhibitor (Compound A1) with docetaxel, another SAC activating, […], anti-mitotic agent, used as standard of care in NSCLC patients, was studied in the NCI-H1299 taxane intrinsically resistant human lung carcinoma (NSCLC) xenograft model in nude mice.\nDocetaxel was applied intravenously once per week upon its respective MTD. Substances were formulated in optimal vehicles to achieve solutions. Animal body weight and tumor size were determined two times weekly. […] For combination treatment Compound A1and docetaxel were applied at the same day within a time frame of 4 hours. Animals of control and Mps-1 kinase inhibitor monotherapy group were treated for a duration of 20 days. Animals of docetaxel monotherapy and docetaxel/Mps-1 kinase inhibitor combination treatment groups were treated for a duration of 42 days. At the end of the study after one final treatment plasma and tumors were sampled for PK analysis and final tumor weight was determined.\nas §1, with “NCI-H1299” for “FIGS. 1A and 1B show the response of NCI-H1299 human NSCLC xenograft tumors to treatment with Compound A1 in combination with paclitaxel. NCI-H1299”, “2.0” for “0.45”, “docetaxel. Docetaxel” for “paclitaxel. Paclitaxel”, “15” for “20”, “2A:” for “1A:”, “2B: Weight of tumors in docetaxel/Mps-1 kinase inhibitor combination group at the end of the study at day 52 after tumor cell inoculation. FIG. 2C:” for “1B:”", "remark": "listed apart in the source"}, "[7]": {"system": "primary human NSCLC xenograft model LU387", "assay": "Combination with paclitaxel in primary human NSCLC xenograft model LU387", "type": "in vivo, nude mice", "conditions": "for mean tumor size: day 42 post treatment", "experimental": "The effect of Compound A1 and paclitaxel compared with a vehicle was evaluated in the subcutaneous primary human NSCLC xenograft model LU387 on nude mice."}, "[8]": {"conditions": "Compound A1 0.45 mg/kg 2QD 2on/5off p.o., paclitaxel 20 mg/kg QD 1on/6off i.v."}, "[9]": {"conditions": "Compound A1 2 mg/kg 2QD 2on/5off p.o., docetaxel 15 mg/kg QD 1on/6off i.v."}}, "note": "Read-outs that look alike come from different tables or passages of the source.", "data": [{"smiles": "COc1cc(S(C)(=O)=O)ccc1Nc1nc2ccc(-c3ccc(NC(=O)[C@H](C)c4ccc(F)cc4)cc3)cn2n1", "note": "[Compound A1]", "values": [{"measurement": "anti-tumor efficacy (in words)", "setting": "[1]", "result": "weak single-agent efficacy"}, {"measurement": "anti-tumor efficacy (in words)", "setting": "[2]", "result": "no effect on tumor growth inhibition"}, {"measurement": "T/Cweight", "setting": "A2780cis xenograft model; 14 treatment days, Compound A1 1 mg/kg PO 2QD 2 days on/5 days off", "result": 0.87}, {"measurement": "relative T/Carea", "setting": "A2780cis xenograft model; 14 treatment days, Compound A1 1 mg/kg PO 2QD 2 days on/5 days off, paclitaxel 24 mg/kg IV QW", "result": 0.89}, {"measurement": "anti-tumor efficacy (in words)", "setting": "A2780cis xenograft model; Compound A1 1 mg/kg (14 days), combination with paclitaxel 24 mg/kg (36 treatment days)", "result": "weak single-agent efficacy"}, {"measurement": "tolerability (in words)", "setting": "A2780cis xenograft model; mouse, in vivo", "result": "well tolerated without critical body weight loss or toxicities"}, {"measurement": "T/Cweight", "setting": "[3]; 38 treatment days, Compound A1 2.5 mg/kg PO 2QD 2 days on/5 days off", "result": 0.52}, {"measurement": "relative T/Carea", "setting": "[3]; 38 treatment days, Compound A1 single agent 2.5 mg/kg PO 2QD, paclitaxel 12 mg/kg IV QW, combination with Compound A1 2 mg/kg PO 2QD", "result": 0.57}, {"measurement": "anti-tumor efficacy (in words)", "setting": "[3]; Compound A1 2.5 mg/kg single agent (38 days), paclitaxel 12 mg/kg and combination with Compound A1 2 mg/kg (treatment day 38 to 59)", "result": "moderate single-agent efficacy"}, {"measurement": "tolerability (in words)", "setting": "[3]; mouse, in vivo", "result": "well tolerated without critical body weight loss or toxicities"}, {"measurement": "Fatal Tox", "setting": "[4]; [8]", "result": "0/10"}, {"measurement": "Max. Body weight loss (%)", "setting": "[4]; [8]", "result": "−1", "unit": "%"}, {"measurement": "anti-tumor efficacy (in words)", "setting": "[4]; Compound A1 0.45 mg/kg 2QD p.o. (28 treatment days), combination with paclitaxel 20 mg/kg i.v. (37 treatment days)", "result": "no effect on tumor growth"}, {"measurement": "T/C weight", "setting": "[4]; mean final tumor weight, Compound A1 0.45 mg/kg 2QD 2on/5off p.o.", "result": 1.34}, {"measurement": "T/C area", "setting": "[4]; relative mean tumor area, 28 treatment days, Compound A1 0.45 mg/kg 2QD 2on/5off p.o., paclitaxel 20 mg/kg QD 1on/6off i.v.", "result": 1.27}, {"measurement": "MTD", "setting": "[5]", "result": 2.5, "unit": "mg/kg"}, {"measurement": "Fatal Tox", "setting": "[6]; [9]", "result": "0/8"}, {"measurement": "Max. Body weight loss (%)", "setting": "[6]; [9]", "result": "−3", "unit": "%"}, {"measurement": "anti-tumor efficacy (in words)", "setting": "[6]; Compound A1 2 mg/kg 2QD p.o. (20 treatment days), combination with docetaxel 15 mg/kg i.v. (42 treatment days)", "result": "weak efficacy"}, {"measurement": "T/C weight", "setting": "[6]; mean final tumor weight, Compound A1 2 mg/kg 2QD 2on/5off p.o.", "result": 1.01}, {"measurement": "T/C area", "setting": "[6]; relative mean tumor area, 20 treatment days, Compound A1 2 mg/kg 2QD 2on/5off p.o., docetaxel 15 mg/kg QD 1on/6off i.v.", "result": 0.89}, {"measurement": "antitumor activity (in words)", "setting": "[7]; Compound A1 single agent 1 mg/kg and 2.5 mg/kg, combination with paclitaxel", "result": "no significant antitumor activity"}, {"measurement": "T/Cvolume", "setting": "[7]; day 42, Compound A1 2.5 mg/kg (high dose)", "result": 0.73}, {"measurement": "mean tumor size", "setting": "[7]; Compound A1 1 mg/kg PO 2QD 2 days on/5 days off over 6 weeks", "result": 1788, "unit": "mm^3"}, {"measurement": "mean tumor size", "setting": "[7]; Compound A1 2.5 mg/kg PO 2QD 2 days on/5 days off over 6 weeks", "result": 1137, "unit": "mm^3"}]}]}
